From PubChem BioAssay (NCI)
Values joined by “and” are separate entries in the source; they are usually repeats but may differ in a detail not shown here. Identical values can stand only once.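 These data come from cells grown in 96-well plates and exposed to compound for 48 hours at five concentrations. GI50 = concentration required for 50% inhibition of growth. TGI: concentration producing complete growth inhibition.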

Columns and labels:
Experiment in all cases: growth of human tumour cells (NCI), 48 h
[1] = test system: U251 CNS
[2] = test system: UACC-257 melanoma
[3] = test system: SK-MEL-5 melanoma
[4] = test system: CCRF-CEM leukemia
[5] = test system: NCI-H460 lung
[6] = test system: HOP-62 NSCLC
[7] = test system: NCI-H23 lung
[8] = test system: A498 renal
[9] = test system: RPMI-8226 leukemia
[10] = test system: OVCAR-4 ovarian
[11] = test system: SK-OV-3 ovarian
[12] = test system: UO-31 renal
[13] = test system: CAKI-1 renal

SMILES | TGI [1] | TGI [2] [µM] | TGI [3] [µM] | TGI [4] [µM] | TGI [5] | TGI [6] | TGI [7] [µM] | TGI [8] | TGI [9] | TGI [10] | TGI [11] | TGI [12] [µM] | TGI [13] [µM] | GI50 [1] [µM] | GI50 [5] | GI50 [6] [µM] | GI50 [8] [µM] | GI50 [9] | GI50 [10] [µM] | GI50 [11] [µM]
OCC1OC(n2cnc3c2NC=NC[C@H]3O)C(O)C1O (some centres not stated) | > 450 µM | > 450 | > 71.3 | > 284 | > 450 µM | > 419 µM | > 450 | > 450 µM | > 450 µM | > 450 µM | > 450 µM | > 450 | > 450 |  |  |  |  |  |  | 
CCOC(=O)c1csc(NC(=O)C(C)N2CCCCC2)n1 (configuration not stated) | > 100 µM | > 100 | > 100 | > 100 | > 100 µM | > 100 µM | > 100 | > 100 µM | > 100 µM | > 100 µM | > 100 µM | > 100 | > 100 |  |  |  |  |  |  | 
CCCCN1C=CN2c3nc4cc(C)c(C)cc4n3C(C(=O)OC)=C(C(=O)OC)C12 (configuration not stated) | > 100 µM | > 100 | > 100 | > 100 | > 100 µM | > 100 µM | > 100 |  | > 100 µM | > 100 µM | > 100 µM | > 100 | > 100 |  |  |  |  |  |  | 
C=C1C(=O)O[C@H]2[C@H]1[C@@H](OC(=O)C=C(C)C)CC1=C[C@@H](C[C@@]3(C)O[C@@H]23)OC1=O | 32.2 µM and 42.5 µM | 6.88 | 15 | 1120 | 5.83 µM and 31.8 µM | 52.2 µM and 187 µM | 13.5 | 26.5 µM and 39.2 µM | 67.2 µM and 7.16 µM | 20.6 µM and 13.7 µM | 36.9 µM and 43.9 µM | 20.9 | 9.11 | 24 | 2.27 µM and 14.9 µM | 60.9 | 21.3 | 0.81 µM and 2.61 µM | 4.55 | 25
C=CCn1c(=O)n(CC=C)c(=O)n(CC=C)c1=O | > 100 µM | > 100 | > 100 | > 100 | > 100 µM | > 100 µM | > 100 | > 100 µM | > 100 µM |  | > 100 µM | > 100 |  |  |  |  |  |  |  | 
COc1ccnc2c1C(=O)c1nc3ccccc3c3ccnc-2c13 | 0.61 µM | 0.536 | 0.437 | 1.35 | 0.139 µM | 5.34 µM | 1.37 | 0.0803 µM | 0.526 µM | 2.65 µM | 0.645 µM | 0.894 | 0.6 |  |  |  |  |  |  | 
CN(C)C(=O)OCOC(=O)N(C)C | > 100 µM | > 100 | > 100 | > 100 | > 100 µM | > 100 µM | > 100 | > 100 µM | > 100 µM | > 100 µM | > 100 µM | > 100 | > 100 |  |  |  |  |  |  | 
COC(=O)c1ccc(/C=C2\N=C(C)OC2=O)cc1 | > 100 µM |  | > 100 | > 100 | > 100 µM | > 100 µM | > 100 | > 100 µM | > 100 µM | > 100 µM | > 100 µM |  | > 100 |  |  |  |  |  |  | 
CCOC(=O)CC1CCN(C(=O)c2ccccc2)C2Cc3c([nH]c4ccccc34)C12C[N+](=O)[O-] (configuration not stated) | > 100 µM | > 100 | > 100 | 51.3 | > 100 µM | > 100 µM | > 100 | > 100 µM |  | > 100 µM | > 100 µM | > 100 | > 100 |  |  |  |  |  |  | 
COC(=O)C1OC(Oc2cc(O)c3c(=O)cc(-c4ccc(O)cc4)oc3c2)C(O)C(O)C1O (configuration not stated) | > 100 µM | > 100 | > 100 | > 100 | > 100 µM | > 100 µM | > 100 | > 100 µM | > 100 µM | > 100 µM | > 100 µM | > 100 | > 100 |  |  |  |  |  |  | 
CO[C@H]1[C@@H](O)[C@@H](C)O[C@@H](O[C@H]2CC[C@@]3(C)[C@H](CC[C@@H]4[C@@H]3CC[C@]3(C)[C@@H](C5=CC(=O)OC5)[C@@H](OC(C)=O)C[C@]43O)C2)[C@@H]1O | 0.186 µM | 0.239 | 0.201 |  | 0.0617 µM | 0.0878 µM | 0.139 | 1.27 µM | > 16.2 µM | 0.127 µM | 0.188 µM | 0.0686 | 0.0719 |  |  |  |  |  |  | 
CC(=O)OCC1OC(Nc2ncc(-c3ccc(C)cc3)s2)C(OC(C)=O)C(OC(C)=O)C1OC(C)=O (configuration not stated) | > 100 µM | 58.3 | > 100 | > 100 | > 80.9 µM | > 100 µM | > 100 | > 100 µM | 65.4 µM | 60.6 µM | > 100 µM | 41 | > 81.1 |  |  |  |  |  |  | 
O=C1NC(=O)C(CCO)(c2ccccc2)C(=O)N1 | > 100 µM | > 100 | > 100 | > 100 | > 100 µM | > 100 µM | > 100 | > 100 µM |  | > 100 µM | > 100 µM | > 100 |  |  |  |  |  |  |  | 
O=C(CC(c1ccccc1)N1CCCCC1)c1ccccc1 (configuration not stated) | 21.9 µM | 27.8 | 29.6 | 4.69 | 26.6 µM | 33.9 µM | 31.6 | 29.3 µM | 5.23 µM | 40.2 µM | 31.4 µM | 36.8 | 30.3 |  |  |  |  |  |  | 
O=c1c(-c2ccccc2)c(SCCCN2CCN(c3cccc(Cl)c3)CC2)n(-c2ccccc2)c(=S)n1-c1ccccc1 | > 100 µM | > 100 | > 100 | > 100 | > 100 µM | > 100 µM | > 100 | > 100 µM | > 100 µM | > 100 µM | > 100 µM |  | > 100 |  |  |  |  |  |  | 
